Assay results as given in patent US12544371B2, “Methods and compositions for treating acute lung injury and acute respiratory distress syndrome” (CalciMedica, Inc., priority 2020, dated 2026).
“Also recorded” adds a separate entry of the source.

Key:
[1] = system: IL-2 release by human CD4+ T cells; experiment: IL-2 release by human CD4+ T cells, isolated cell assay; format: cell-based; conditions: SEM (n), read-out: Compound 1 IC50, IL-2 release by human CD4+ T cells
Source text: (§1) CRAC channels may play a proximal role in a calcium-calcineurin pathway leading to cytokine release in immune cells.

[2] = system: IL-2 release by human PBMCs; experiment: IL-2 release by human PBMCs, isolated cell assay; format: cell-based; conditions: PBMC, SEM (n), read-out: Compound 1 IC50, IL-2 release by human PBMCs
Source text: as §1

[3] = system: stimulated IL-2 release in whole blood; experiment: Whole blood assay of stimulated IL-2 release; format: cell-based; conditions: Human whole blood; SEM (n); read-out: Compound 1 IC50, whole blood assay of stimulated IL-2 release
Source text: as §1

[4] = system: cytokine release from human lymphocytes; experiment: In vitro studies of cytokine release from human lymphocytes; format: cell-based
[5] = Cardiovascular safety in telemetered cynomolgus monkey; format: in vivo
Source text: Compound 1 is a non-limiting example of a composition described herein that inhibits calcium release-activated calcium (CRAC) channels).

[6] = system: bacterial reverse mutation; experiment: Ames bacterial reverse mutation assay; format: cell-based; conditions: in vitro
[7] = system: human blood and plasma; experiment: Hemolysis testing
Source text: Hemolysis testing concluded that Compound 1 was compatible with human plasma and non-hemolytic in human blood.

[8] = Rat model of acute pancreatitis (caerulein-induced), IV infusion; format: in vivo
[9] = Phase 1 single ascending dose study (Compound 1 Test 101), healthy subjects; format: in vivo, human
Source text: Two Phase 1 studies of N-(5-(6-Chloro-2,2-difluorobenzo[d][1,3]dioxol-5-yl)pyrazin-2-yl)-2-fluoro-6-methylbenzamide (Compound 1) have been conducted in healthy subjects: a single ascending dose (SAD) study (Compound 1 Test 101) and a multiple ascending dose (MAD) study (Compound 1 Test 102). In Compound 1 Test 101 (Table 1), 32 healthy subjects were enrolled in five groups and randomized in a 3:1 ratio to receive a single dose of active versus placebo. The dose levels for each group are noted in Table 1. The dose volume of the emulsion was fixed at 1.3 mL/kg for all subjects in the SAD study groups, and an injectable emulsion of Compound 1 or placebo was administered via a 4-hour IV infusion.
Plasma concentrations of compound rise steadily during the 4-hour infusion, with Tmax achieved at the end of infusion (4 hours). After the end of infusion, there is a rapid and prominent distribution phase followed by a prolonged period of residual drug levels. The terminal elimination phase has not yet been fully characterized as it appears to be much longer than was anticipated based on pre-clinical PK data in mouse, rat, dog and monkey. Plasma concentrations during the terminal phase are approximately 5% of Cmax values and, as indicated above, to date there have been no clinically significant AEs reported during this phase. Plasma exposures, defined by AUC0-24 h, appear to be dose-proportional and reached a maximum of 6710 ng*h/mL in Group 5, which is 4.3-fold below the mean AUC24 h in monkey at the NOAEL (29,000 ng*hr/mL).

[10] = PD/PK study in patients with acute pancreatitis (Compound 1 Test 202); format: in vivo, human
Procedure: (§2) In Compound 1 Test 202, a pharmacodynamic and pharmacokinetic study of Compound 1 in patients with acute pancreatitis, patients with AP (regardless of the presence of SIRS and/or hypoxemia) were administered a single IV infusion of 2.08 mg/kg of an injectable emulsion of Compound 1 and blood, plasma and serum were collected for analysis. It was planned to initially enroll 5 patients and then to enroll an additional 4 patients as needed. Ultimately, 7 patients were screened for the study, and all 7 enrolled in and completed the study. On Days 1 and 2, blood and plasma samples for PD and PK analyses, respectively, were obtained 30 minutes after completing the administration of Compound 1 and 24 hours from the start of the administration of Compound 1. In patients hospitalized at Day 5 and 10, blood and plasma samples were obtained; if discharged earlier, samples were obtained at the time of discharge. After discharge, patients returned to the hospital on Day 30 to provide final blood and plasma samples.

[11] = system: CRAC channel-dependent stimulated IL-2 secretion; experiment: Ex vivo whole blood PD assay of CRAC channel-dependent IL-2 release (Test 202); format: in vivo, human
Procedure: as §2
An intravenous formulation of a CRAC inhibitor comprising Compound 1 allowed rapid delivery and onset of action when a single 2.08 mg/kg dose was given in human patients with acute pancreatitis (AP). Ex vivo whole blood pharmacodynamic (PD) assays of CRAC channel-dependent IL-2 release were performed.

[12] = Animal models of acute pancreatitis and lung injury (general statements); format: in vivo
Source text: Preclinical data supports the use of CRAC inhibitors (e.g. N-(5-(6-Chloro-2,2-difluorobenzo[d][1,3]dioxol-5-yl)pyrazin-2-yl)-2-fluoro-6-methylbenzamide, Compound 1) in severe COVID-19 pneumonia.
For example, Compound 1 was effective following i.p. injection in mice (Wen et al., Gastroenterol, 149: 481-492, 2015), and following 4-hour i.v. infusion in rats (Waldron et al., J Physiol, 597.12: 3085-3105, 2019).

[13] = Phase 1 multiple ascending dose study (Compound 1 Test 102), healthy subjects; conditions: for AUC(0-t) / Cmax: human, plasma, intravenous
Procedure: One of the subjects received placebo at the maximum dose volume of emulsion, 1.3 mL/kg, for 7 days, whereas all others were dosed on a weight-based adjustment of dose volume.

Compound: Cc1cccc(F)c1C(=O)Nc1cnc(-c2cc3c(cc2Cl)OC(F)(F)O3)cn1 [Compound 1, N-(5-(6-Chloro-2,2-difluorobenzo[d][1,3]dioxol-5-yl)pyrazin-2-yl)-2-fluoro-6-methylbenzamide]
- IC50 [1]: 4 ± 0.5 nM
- IC50 [2]: 10 ± 0.4 nM
- IC50 [3]: 178 ± 32 nM
- inhibition of cytokine release from human lymphocytes [4]: inhibits release of multiple cytokines; also recorded: potent, concentration-dependent inhibition
- cardiovascular data at lower doses ([5]; 1, 3 and 10 mg/kg, also seen in placebo treated animals): transient, non-dose-related, slight-to-moderate increases in systolic/diastolic arterial blood pressures and negative chronotropic effects (mild and non-adverse)
- clinical and cardiovascular effects ([5]; single telemetered cynomolgus monkey, 25 mg/kg IV): Dose-limiting adverse clinical and cardiovascular effects
- Ames bacterial reverse mutation assay result [6]: negative
- compatibility with human plasma [7]: compatible
- hemolysis in human blood [7]: non-hemolytic
- lung myeloperoxidase activity (neutrophil infiltration) [8]: decrease
- mRNA levels of the cytokines TNFα and IL-6 (lung) [8]: decrease
- margin of AUC0-24 h below mean AUC24 h in monkey at the NOAEL ([9]; SAD Group 5): 4.3 fold
- Tmax ([9]; human, in vivo): 4 h
- cardiac function: heart rate, QTcF, cardiac troponin-T, B-type natriuretic peptide ([9]; human, in vivo): no evidence of any treatment related effect
- clinically significant laboratory abnormalities ([9]; human, in vivo): No laboratory abnormalities
- distribution compartments, non-compartmental PK analysis ([9]; human, in vivo): three compartments
- dose proportionality of plasma exposure (AUC0-24 h) ([9]; human, in vivo): dose-proportional
- number of clinical AEs (all mild) ([9]; human, in vivo): three
- plasma concentrations during the terminal phase relative to Cmax ([9]; human, in vivo): approximately 5 % of Cmax
- systolic or diastolic blood pressure ([9]; human, in vivo): no evidence of any sustained treatment related increase
- AUC(0-t) ([9]; human, in vivo, 2.1 mg/kg): 6710 ng·h/mL
- patients with moderate TEAEs ([10]; 1 of 7 patients): 14%
- patients with severe TEAEs ([10]; 2 of 7 patients, also SAEs, not considered drug related): 29%
- number of TEAEs ([10]; 7 patients, single 2.08 mg/kg): 7 TEAEs
- patients who experienced TEAEs ([10]; 7 patients, single IV infusion of 2.08 mg/kg): 3 patients
- Discharge IL-6 levels, patients with IL-6 ≥ 1000 pg/mL ([10]; PK/PD Single Dose, admission 0): 0
- Discharge IL-6 levels, patients with 150 pg/mL ≤ IL-6 < 1000 pg/mL ([10]; PK/PD Single Dose, admission 1): 0
- TEAEs with causality Unlikely ([10]; of the 7 TEAEs): 2 TEAEs
- TEAEs with causality Unrelated ([10]; of the 7 TEAEs): 5 TEAEs
- mild TEAEs ([10]; of the 7 TEAEs): 3 TEAEs
- moderate TEAEs ([10]; of the 7 TEAEs): 2 TEAEs
- severe TEAEs (also SAEs) ([10]; of the 7 TEAEs): 2 TEAEs
- inhibition at 2.08 mg/kg ([11]; Homo sapiens, at or near Cmax, single 2.08 mg/kg IV): ~57%
- time over which the inhibitory effect dissipated ([11]; after Cmax): 1 to 2 days
- recovery of IL-2 production ([11]; after the end of the infusion): 24 h
- decrease of IL-2 production ([11]; at the end of the infusion): > 50%
- onset of action, IL-2 release inhibition ([11]; peak at the end of a 4-hour infusion): rapid onset of action
- cytokines and neutrophil infiltration in lung tissue [12]: inhibit
- Cmax accumulation ([13]; MAD Group 1, 0.5 mg/kg): 1.6 fold
- increase in systemic exposure (AUC24 h), Day 7 compared to Day 1 ([13]; MAD Group 1, 0.5 mg/kg): 2.6 fold
- margin of Day 7 AUC24 h below NOAEL AUC24 h in monkey ([13]; MAD Group 1, 0.5 mg/kg): 9.1 fold
- Cmax accumulation ([13]; MAD Group 2, 1.0 mg/kg): 1.4 fold
- increase in AUC24 h, Day 7 compared to Day 1 ([13]; MAD Group 2, 1.0 mg/kg): 2.6 fold
- margin of Day 7 AUC24 h below NOAEL AUC24 h in monkey ([13]; MAD Group 2, 1.0 mg/kg): 4.2 fold
- clinically significant laboratory abnormalities ([13]; MAD group 1): No laboratory abnormalities
- SAEs and AEs classified as moderate or severe ([13]; MAD group 1, 0.50 mg/kg daily for 7 days): no SAEs and no AEs classified as moderate or severe in intensity
- number of clinical AEs (all mild) ([13]; MAD group 1, eight subjects incl. placebo): 15
- clinically significant laboratory abnormalities ([13]; MAD group 2): No laboratory abnormalities
- SAEs and AEs classified as moderate or severe ([13]; MAD group 2, 1.0 mg/kg daily for 7 days): no SAEs and no AEs classified as moderate or severe in intensity
- number of AEs (all mild) ([13]; MAD group 2, eight subjects incl. placebo): three
- cardiac function: heart rate, QTcF, B-type natriuretic peptide ([13]; MAD, both groups): no evidence of any sustained treatment related effect
- systolic or diastolic blood pressure ([13]; MAD, both groups): no evidence of any sustained treatment related increase
- AUC(0-t) ([13]; 0.5 mg/kg): 3190 ng·h/mL
- Cmax ([13]; 0.5 mg/kg): 363 ng/mL
- AUC(0-t) ([13]; 1 mg/kg): 6830 ng·h/mL
- Cmax ([13]; 1 mg/kg): 637 ng/mL
